In article PMC4583449, “Characterisation of (R)-2-(2-Fluorobiphenyl-4-yl)-N-(3-Methylpyridin-2-yl)Propanamide as a Dual Fatty Acid Amide Hydrolase: Cyclooxygenase Inhibitor” (PLoS ONE, 2015):
Several values for one entry are separate records, joined by “and”; a condition that tells them apart may be missing. Equal entries are not always repeated. Where two headings read alike, the source gives them in different places.

Assays:
ovine COX-1 = molecular target: T1, ovine COX-1 (Ovis aries, UniProt P05979); assay: COX-1 inhibition, oxygraphic method (oxygen electrode); type: biochemical; details: 10 μM arachidonic acid; no preincubation phase; approximate, from initial velocities
T1 construct: purchased Cayman Chemical Co. 60100
T1 sequence (P05979 25-600): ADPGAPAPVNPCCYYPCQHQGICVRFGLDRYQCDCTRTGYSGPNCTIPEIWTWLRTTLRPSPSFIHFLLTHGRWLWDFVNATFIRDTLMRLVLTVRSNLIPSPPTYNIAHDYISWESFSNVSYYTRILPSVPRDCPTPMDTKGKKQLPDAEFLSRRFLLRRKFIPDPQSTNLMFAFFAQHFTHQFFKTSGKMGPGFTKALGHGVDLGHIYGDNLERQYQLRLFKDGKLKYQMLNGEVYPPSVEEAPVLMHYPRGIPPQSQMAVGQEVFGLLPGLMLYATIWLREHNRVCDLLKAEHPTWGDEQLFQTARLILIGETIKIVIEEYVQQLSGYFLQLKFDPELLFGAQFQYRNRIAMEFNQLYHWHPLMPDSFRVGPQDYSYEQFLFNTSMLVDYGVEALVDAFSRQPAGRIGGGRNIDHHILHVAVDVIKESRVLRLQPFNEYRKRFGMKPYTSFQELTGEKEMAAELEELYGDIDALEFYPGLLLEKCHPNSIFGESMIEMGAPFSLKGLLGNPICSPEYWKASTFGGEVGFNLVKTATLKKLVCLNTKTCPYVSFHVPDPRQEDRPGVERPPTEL
Description: (§1) The assay was performed according to Meade et al. with minor modifications. An oxygen electrode chamber with integral stirring (Oxygraph System, Hansatech Instruments, King´s Lynn, U.K.) was calibrated daily to ambient temperature and air pressure. The assay buffer contained 0.1 M Tris-HCl buffer pH 7.4, 1 μM haematin, 2 mM phenol, 5 mM EDTA, 10 μM substrate (arachidonic acid or 2-AG) (final assay volume was 2 ml). After addition of (R)- or (S)-Flu-AM1 dissolved in ethanol (final assay concentration 1%), a baseline was established for 5 min before initiation of reaction by addition of 200 units ovine COX-1 or human recombinant COX-2. The change in oxygen consumption as a measurement of enzyme activity was monitored for approximately 5 min.

rat brain FAAH = molecular target: T2, rat brain FAAH (Rattus norvegicus, UniProt P97612); assay: [3H]AEA hydrolysis in rat brain homogenates; type: biochemical; details: current authors, unpublished data; read-out: IC50 inhibition of [3H]AEA hydrolysis in rat brain homogenates
T2 construct: the racemate was studied in rat brain homogenates, whereas mouse brain homogenates were used here; from tissue; host or cells: rat brain homogenates
T2 sequence (P97612 1-579): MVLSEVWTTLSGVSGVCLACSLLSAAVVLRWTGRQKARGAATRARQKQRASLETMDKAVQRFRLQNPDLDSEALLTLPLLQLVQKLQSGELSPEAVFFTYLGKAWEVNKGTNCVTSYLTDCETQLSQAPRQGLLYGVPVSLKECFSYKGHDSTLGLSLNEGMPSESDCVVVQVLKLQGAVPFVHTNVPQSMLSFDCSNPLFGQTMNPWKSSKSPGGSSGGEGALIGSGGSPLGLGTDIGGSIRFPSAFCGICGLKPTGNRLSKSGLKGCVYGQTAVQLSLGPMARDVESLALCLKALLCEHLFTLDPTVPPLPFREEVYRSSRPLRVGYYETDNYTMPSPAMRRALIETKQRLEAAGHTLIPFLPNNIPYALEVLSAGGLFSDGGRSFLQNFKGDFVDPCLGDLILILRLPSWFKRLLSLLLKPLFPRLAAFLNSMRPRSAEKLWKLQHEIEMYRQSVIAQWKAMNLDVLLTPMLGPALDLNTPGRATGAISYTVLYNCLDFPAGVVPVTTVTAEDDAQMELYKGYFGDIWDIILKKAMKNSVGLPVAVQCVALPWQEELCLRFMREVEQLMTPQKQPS

human recombinant COX-2 = molecular target: T3, human recombinant COX-2 (Homo sapiens, UniProt P35354); assay: COX-2 inhibition, oxygraphic method (oxygen electrode); type: biochemical; details: no preincubation phase, approximate, from initial velocities
T3 construct: purchased Cayman Chemical Co. 60122
T3 sequence (P35354 18-604): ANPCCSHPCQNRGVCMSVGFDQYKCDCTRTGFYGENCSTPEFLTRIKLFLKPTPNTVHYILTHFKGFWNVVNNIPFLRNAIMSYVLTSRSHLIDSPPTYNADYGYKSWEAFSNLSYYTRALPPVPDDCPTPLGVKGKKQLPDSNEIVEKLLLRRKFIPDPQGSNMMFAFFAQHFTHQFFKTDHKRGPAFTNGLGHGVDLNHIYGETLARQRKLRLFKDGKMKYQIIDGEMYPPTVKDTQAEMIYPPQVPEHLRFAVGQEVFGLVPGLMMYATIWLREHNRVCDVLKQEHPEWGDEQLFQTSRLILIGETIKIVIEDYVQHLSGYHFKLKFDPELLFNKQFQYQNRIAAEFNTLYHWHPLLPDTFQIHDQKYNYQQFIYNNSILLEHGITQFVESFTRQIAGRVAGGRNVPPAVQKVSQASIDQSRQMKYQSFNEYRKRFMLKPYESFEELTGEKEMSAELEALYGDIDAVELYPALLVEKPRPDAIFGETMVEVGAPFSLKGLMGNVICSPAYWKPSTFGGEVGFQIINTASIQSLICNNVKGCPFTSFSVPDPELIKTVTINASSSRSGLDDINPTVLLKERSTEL
Description: as §1

mouse brain FAAH = molecular target: T4, mouse brain FAAH (Mus musculus, UniProt O08914); assay: FAAH assay, [3H]AEA hydrolysis in mouse brain homogenates; type: biochemical; details: 0.5 μM [3H]AEA; read-out: IC50 inhibition of [3H]AEA hydrolysis in mouse brain homogenates
T4 construct: Brains from male B6CBAF1/J mice, stored at -80°C, were thawed, weighed and homogenized in cold buffer; from tissue; host or cells: brain of male B6CBAF1/J mice (washed membrane pellet homogenate)
T4 sequence (O08914 1-579): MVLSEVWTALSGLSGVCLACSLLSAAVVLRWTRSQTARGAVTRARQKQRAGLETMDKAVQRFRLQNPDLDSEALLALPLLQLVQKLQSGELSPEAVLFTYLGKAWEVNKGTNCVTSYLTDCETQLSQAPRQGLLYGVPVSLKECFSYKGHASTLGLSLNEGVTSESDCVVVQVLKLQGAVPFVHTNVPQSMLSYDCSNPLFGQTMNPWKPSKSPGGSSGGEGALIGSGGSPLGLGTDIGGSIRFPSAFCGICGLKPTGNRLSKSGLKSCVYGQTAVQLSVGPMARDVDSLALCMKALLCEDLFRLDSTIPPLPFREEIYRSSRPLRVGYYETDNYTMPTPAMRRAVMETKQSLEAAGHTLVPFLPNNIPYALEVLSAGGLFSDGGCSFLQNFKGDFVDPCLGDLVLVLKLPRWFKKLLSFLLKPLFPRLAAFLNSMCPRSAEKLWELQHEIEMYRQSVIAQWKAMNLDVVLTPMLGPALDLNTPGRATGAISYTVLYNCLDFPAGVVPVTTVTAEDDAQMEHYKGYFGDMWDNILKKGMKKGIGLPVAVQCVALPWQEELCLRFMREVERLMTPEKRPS
Description: Brains from male B6CBAF1/J mice, stored at -80°C, were thawed, weighed and homogenized in cold buffer (20 mM HEPES, 1 mM MgCl2 pH 7.0). Homogenates were centrifuged (35,000 g at 4°C for 20 min) before the pellet was resuspended in cold homogenization buffer. Centrifugation and resuspension was repeated twice. The suspension was incubated at 37°C for 15 min to degrade any endogenous substrate able to interfere with the FAAH assay. After centrifugation (35,000 g at 4°C for 20 min), the pellet was resuspended in cold buffer (50 mM Tris-HCl, 1mM EDTA, 3 mM MgCl2, pH 7.4). The protein concentration was determined according to the Bradford assay after which the samples were frozen in aliquots at -80°C. Ethical permission for the animal experiments was obtained from the local animal research ethical committee (Umeå Ethical Committee for Animal Research, Umeå, Sweden). FAAH was assayed using the method of Boldrup et al., whereby homogenates (0.3 μg protein / assay) in assay buffer (10 mM Tris-HCl, 1mM EDTA, pH 7.4), test compounds and substrate ([^3H]AEA in 10 mM Tris-HCl, 1mM EDTA, pH 7.4 containing 10 mg/ml fatty acid-free bovine serum, assay concentration 0.5 μM unless otherwise stated) were incubated for 10 min at 37°C. Thereafter, 400 μL activated charcoal (80 μL activated charcoal + 320 μL 0.5 M HCl) was added and the samples were placed on ice and centrifuged at 2500 rpm for 10 min. Aliquots (200 μL) of the supernatant was analyzed for tritium content by liquid scintillation spectroscopy with quench correction.

RAW 264.7 cells [1] = assay: Lipid profile (prostaglandins, 2-AG, AEA and related lipids) of RAW 264.7 cell extracts, UPLC-MS/MS; type: cell-based, mouse; details: 30 min
RAW 264.7 cells [2] = assay: [3H]AEA hydrolysis by intact RAW 264.7 cells; type: cell-based, mouse; details: LPS + INF-γ-treated cells; 100 nM [3H]AEA, 60 min; URB597 1 μM, flurbiprofen and (R)-Flu-AM1 10 μM

SMILES	IC50 (ovine COX-1)	IC50 (rat brain FAAH) [nM]	IC50 (human recombinant COX-2; 10 μM 2-AG, read-out: IC50 COX-2 (2-AG))	IC50 (human recombinant COX-2; 10 μM arachidonic acid, read-out: IC50 COX-2 (arachidonic acid))	IC50 (mouse brain FAAH) [µM]	Effect on basal and LPS + INF-γ-stimulated PGD2 and PGE2 production (RAW 264.7 cells [1]; 10 μM)	Effect on levels of 2-AG in the cell extracts (RAW 264.7 cells [1]; 10 μM, unstimulated and LPS + INF-γ-treated)	Effect on levels of AEA and related N-acylethanolamines in the cells (RAW 264.7 cells [1]; LPS + INF-γ-treated, ionomycin (5 μM) treated cells, URB597 1 μM, flurbiprofen and (R)-Flu-AM1 10 μM)	Effect on hydrolysis of exogenous [3H]AEA by intact cells (RAW 264.7 cells [2])
Cc1cccnc1NC(=O)[C@@H](C)c1ccc(-c2ccccc2)c(F)c1 [(S)-Flu-AM1]	3000 nM and ~3000 nM	990	0.7 µM and ~0.7 µM	10 µM and ~10 µM	11	–	–	–	–
CC(C(=O)O)c1ccc(-c2ccccc2)c(F)c1 (stereo not drawn) [Flurbiprofen, flurbiprofen, reference compound]	–	–	–	–	–	blocked	not affected	did not affect	would not be expected, and this was found to be the case
